Where “and” joins values, the source holds several entries; their conditions need not be identical. Equal entries are not always repeated. Structures can show the parent of a compound that is named as a salt.
Legend:
PPARδ = target: T1, PPARδ (Homo sapiens, UniProt Q03181); test: NR selectivity assay PPARδ; details: unnamed ref standard 0.004 μM
T1 sequence (Q03181 1-441): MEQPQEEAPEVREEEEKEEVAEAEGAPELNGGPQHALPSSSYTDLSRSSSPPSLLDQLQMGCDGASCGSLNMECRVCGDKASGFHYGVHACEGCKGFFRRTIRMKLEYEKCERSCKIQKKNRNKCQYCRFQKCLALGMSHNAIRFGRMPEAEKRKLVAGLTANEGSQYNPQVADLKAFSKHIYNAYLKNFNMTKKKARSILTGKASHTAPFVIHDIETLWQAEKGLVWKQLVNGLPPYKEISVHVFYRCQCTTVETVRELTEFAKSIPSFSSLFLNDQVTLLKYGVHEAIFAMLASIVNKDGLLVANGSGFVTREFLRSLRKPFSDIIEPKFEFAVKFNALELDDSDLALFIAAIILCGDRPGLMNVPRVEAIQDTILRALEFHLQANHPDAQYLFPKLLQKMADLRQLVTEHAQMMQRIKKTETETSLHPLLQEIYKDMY

[1] = 1-Octanol/water partition coefficient (shake-flask); assay type: physicochemical; details: ionized species, pH 8
Protocol: Since the sulphate and sulphonated analogues are always ionised at all pH values the octanol/water partition coefficient was measured for all molecules in ionized form. 1-Octanol/water partition coefficient (log P) was evaluated using a conventional shake-flask procedure. […] The aqueous buffer was previously pre-saturated with 1-octanol, 5 ml of 1-octanol pre-saturated with water was then added and the samples were left to equilibrate for 2 weeks under continuous stirring at room temperature After centrifugation the two phases were carefully separated. BA concentration in the water phase was measured with HPLC-ESI ? MS/MS using C18 column (150 mm×2 mm i.d., 4 μm) and, as mobile phases, water containing 15 mM acetic acid pH 5 and acetonitrile. The flow rate was 150 μal/min and the column was maintained at 45° C. The mass spectrometry acquisition was performed in the multiple reaction monitoring mode using the ESI source in negative ionization.

hTGR5 [2] = target: T2, hTGR5 (Homo sapiens, UniProt Q8TDU6); test: Transactivation assay (CRE-driven luciferase reporter) on hTGR5; assay type: cell-based
T2 sequence (Q8TDU6 1-330): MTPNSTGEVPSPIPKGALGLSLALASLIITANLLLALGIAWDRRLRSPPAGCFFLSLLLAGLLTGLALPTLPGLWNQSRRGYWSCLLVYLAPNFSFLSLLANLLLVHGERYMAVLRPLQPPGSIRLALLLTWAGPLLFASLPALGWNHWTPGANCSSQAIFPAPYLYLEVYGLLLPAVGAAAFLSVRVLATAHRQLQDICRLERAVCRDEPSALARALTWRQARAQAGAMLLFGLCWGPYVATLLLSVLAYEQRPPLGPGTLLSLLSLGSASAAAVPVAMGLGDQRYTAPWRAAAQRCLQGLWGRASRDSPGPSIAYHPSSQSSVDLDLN
Protocol: CHO cells were plated in 96-well plates at a density of 3.5×10^4 cells/well, cultured for 24 h, and then transfected with 150 ng of human (h) TGR5 expression plasmid (pCMVSPORT6/hTGR5) and 100 ng of cAMP-responsive element (CRE)-driven luciferase reporter plasmid (pCRE-Luc) in each well using Lipofectamine 2000 reagent (Invitrogen) according to the manufacturer's instructions. After 6 h incubation, cells were washed once with phosphate-buffered saline (PBS) and medium was exchanged for DMEM containing 0.1% (w/v) bovine serum albumin (BSA). After incubation for another 18 h, cells were treated for 5 h with different concentrations of each compound in fresh DMEM containing 0.1% (w/v) BSA.
For β-galactosidase assays, 10 μl of cell lysate was mixed with 100 μl of Buffer Z [60 mM Na2HPO4, 10 mM KCl, 1 mM MgSO4, 50 mM β-mercaptoethanol and 0.75 mg/ml o-nitrophenyl-β-D-galactopyranoside (ONPG)] and incubated at 37° C. for 0.5-3 h. Reactions were stopped by adding 50 μl of Stop buffer (1M Na2CO3) and the optical density at 420 nm was determined.
(§1) EC50 values were determined by probit analysis.

hTGR5 [3] = target: T2, hTGR5; test: FRET-cAMP on TGR5 over-expressing HEH293 cells; assay type: cell-based
Protocol: Assays were performed in triplicate or quadruplicate for each condition. EC50 values were determined by probit analysis. […] After subtracting the average value of the basal (vehicle-treated) condition, values were applied to EC50 and/or efficacy determinations. Calculation of average EC50 and comparison of the EC50 between different compounds were done after transformation to logarithms.

Intestinal Bacteria = test: In vitro metabolic stability in human stool culture; details: human stool culture
Protocol: Homogenized fresh human stools (500 mg) were transferred into sterile vials to which 5 mL of sterilized chopped meat-glucose medium (Scott Lab., Fiskville, R.I.) was added. BA were then added at a final concentration of 0.05 mM. Vials were incubated at 37° C.; then, at 0, 1, 2, 4, 8 and 24 h after the addition of the BA, the reaction was stopped with 150 μL of 30% KOH. The samples were centrifuged at 3500 rpm for 10 min; from the supernatant the BA were isolated by C-18 solid-phase extraction and analyzed by TLC and HPLC-ES-MS/MS.
Thin-layer chromatography (TLC), utilizing silica gel 0.25 mm thickness plates (Merck, Darmstat, Germany), was employed as the first screening test. The solvent system used for the separation of conjugated BA was composed of propionic acid/isoamyl acetate/water/N-propanol (3:4:1:2, v/v/v/v; solvent I), and that of the unconjugated BA was acetic acid/carbon tetrachloride/isopropyl ether/isoamyl acetate/water/N-propanol/benzene (1:4:6:8:2:2, v/v/v/v/v/v; solvent II).

PXR = target: T3, PXR (Homo sapiens, UniProt O75469); test: PXR ligands competition assay (binding assay)
T3 sequence (O75469 1-434): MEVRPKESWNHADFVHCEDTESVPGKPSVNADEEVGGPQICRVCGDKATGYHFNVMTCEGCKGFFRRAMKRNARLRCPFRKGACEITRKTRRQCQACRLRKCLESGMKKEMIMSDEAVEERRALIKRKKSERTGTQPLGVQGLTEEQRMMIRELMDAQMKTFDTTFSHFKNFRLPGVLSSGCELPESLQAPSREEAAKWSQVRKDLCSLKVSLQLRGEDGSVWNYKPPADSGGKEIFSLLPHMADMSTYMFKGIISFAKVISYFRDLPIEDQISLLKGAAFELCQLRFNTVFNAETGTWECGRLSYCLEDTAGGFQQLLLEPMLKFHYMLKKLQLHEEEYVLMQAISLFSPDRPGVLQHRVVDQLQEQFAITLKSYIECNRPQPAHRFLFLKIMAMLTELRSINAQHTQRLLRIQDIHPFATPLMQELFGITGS
Protocol: (§2) The selectivity of compounds of the invention was evaluated using assay methods known in the art. Specifically, the following assay methods were used: • FXR and LXR: Coactivator Recruitment (alphascreen); • TGR5: cAMP level on human intestinal cell line (NCI-H716); • PXR: Ligands Competition assay (Binding Assay) • CAR: Coactivator Recruitment (Lanthascreen)

hTGR5 [4] = target: T2, hTGR5; test: FRET (cAMP) level in NCI-H716 human intestinal cell line; assay type: cell-based
Protocol: as §1, §2

Water solubility = assay type: physicochemical; details: for Ws (water solubility): BA as protonated species, 0.1 M HCl, pH 1, hs = highly soluble, not evaluated; for solubility in biological fluids: ionized even at low pH, physiological conditions
Protocol: Solid compound (BA) was suspended in 5 ml of 0.1 M HCl. […] The flow rate was 150 μl/min. The mass spectrometry acquisition was performed in the multiple reaction monitoring mode using the ESI source in negative ionization. Water solubility was expressed as μmol/liter.
The water solubility was measured for the insoluble protonated species of carboxylated bile acids at a pH 1.

Structure (SMILES) | PPARδ EC50 (PPARδ) | LogPA- (1-octanol-water partition coefficient) ([1]; Sodium Salt) | EC50 (hTGR5 [2]) [nM] | EC50 (hTGR5 [3]) [nM] | side chain stability (Intestinal Bacteria) | EC50 (PXR) [nM] | EC50 (hTGR5 [4]) [nM] | Ws (water solubility) (Water solubility) | solubility in biological fluids (Water solubility) | LogPA- (1-octanol-water partition coefficient) [1]
CC[C@H]1[C@@H](O)[C@@H]2[C@H](C[C@H](O)[C@]3(C)[C@@H]([C@H](C)CCCS(=O)(=O)[O-])CC[C@@H]23)[C@@]2(C)CC[C@@H](O)C[C@@H]12.[Na+] [Compound 3A, 3α,7α,12α-trihydroxy-6α-ethyl-5β-cholan-24-sulfonate Sodium Salt] | No | 0.71 and 0.7 | 600 | 11 | very stable | 150000 | 700 ± 200 | hs | always soluble in all biological fluids | 
CCC1C(O)C2C3CCC(C(C)CC(C)OS(=O)(=O)O)C3(C)CCC2C2(C)CCC(O)CC12 [Compound 2A, 3α,7α,23-trihydroxy-6α-ethyl-23(S)-methyl-24-nor-5β-cholan-23-sulfate Sodium Salt] | No |  | 1200 | 25 | quite stable | 21000 | 1600 ± 300 | hs | always soluble in all biological fluids | 2.3

Reference: patent US8796249B2, “TGR5 modulators and methods of use thereof” (Intercept Pharmaceuticals, Inc., priority 2008, dated 2014)
